# Results taken from patent publication US20210156846A1, “MICROFLUIDIC PLATFORM FOR TARGET AND BIOMARKER DISCOVERY FOR NON-ALCOHOLIC FATTY LIVER DISEASE” (Javelin Biotech, Inc., priority 2019, published 2021).
# System: liver-adipose crosstalk MPSs
# Assay: Disease severity in NAFLD liver-adipose crosstalk MPS after treatment
# Format: cell-based, human
# Conditions: MHM-induced NAFLD liver-adipose crosstalk MPS; no data shown
# Method: The disease modifying potential of targets is evaluated using one or both of large and small molecules and functional genomics tools, such as CRISPR. For example, large molecules can include ligand antagonists, Humira (adalimumab) blocks, and TNF-α. Healthy and NAFLD liver-adipose MPSs are established previously described. Following disease induction, the liver-adipose MPSs are treated with small molecules (alone and in combination) or CRISPR short guide RNAs (sgRNAs) that modulate the activity or expression of disease-relevant signaling pathways (e.g. CCR2-5, FXR, PPARγ, PPARβ/δ, and PPARγ) as previously described in relation to FIG. 4. The dosing regimen are optimized using the efficacy data generated using the liver and adipose spheroids previously described. The disease-modifying potential of the therapeutic treatment regimens in the liver-adipose crosstalk MPS 120 are determined using phenotypic (e.g., IR, steatosis, steatohepatitis, and fibrosis) and biomarker (apoptosis, hepatokine, adipokine, cytokine) readouts.
# In the liver-adipose MPS 120, MHM induces a NAFLD phenotype in the liver (e.g., oxidative stress, steatosis, and fibrosis) and adipose tissue (e.g., steatosis) compared to MPSs cultured in healthy medium. Clinical biomarkers of NAFLD (e.g., AST, ALT, cytokeratin-18) are elevated in diseased systems compared to healthy systems. […]
row,SMILES,"severity of the steatosis, fibrosis, and insulin resistance"
1,CCCCOCCOc1ccc(-c2ccc3c(c2)/C=C(/C(=O)Nc2ccc([S@@+]([O-])Cc4cncn4CCC)cc2)CCCN3CC(C)C)cc1 [cenicriviroc],reduce the severity
2,CSc1ccc(C(=O)/C=C/c2cc(C)c(OC(C)(C)C(=O)O)c(C)c2)cc1 [elafibranor],reduce the severity
